System: moderate-to-severe chronic spontaneous urticaria (CSU)
Test: Phase 2 CSU study: urticaria activity score over 7 days (UAS7)
Format: in vivo, human
Conditions: ITT, 400 mg QPM
From the text: The study comprises a 12 week, randomized, double-blind, placebo-controlled, multi-center, dose-ranging efficacy and safety phase, followed by a 40 week open label extension (OLE) phase (see FIG. 1). The study consists of three phases and an optional OLE phase. […] Clinically, CSU is characterized by the spontaneous and recurrent appearance of pruritic hives. The proposed primary endpoints were the UAS7 at Week 12 in EU and EU reference countries and the ISS7 in the US. Regardless of where a participant was from, all assessments were the same. The UAS7 score is a composite score containing both the HSS7 and the ISS7. This allowed a global assessment of the two key components of urticaria: hives and itch. […] The UAS is a validated PRO measure. […] The daily UAS scores range from 0 to 6 point/day. […] Patients were to complete the UAS using the e-diary. […] The following secondary endpoints were to be analyzed using the same approach as for the primary endpoint: • Change from baseline in UAS7 at Week 4 • Change from baseline in UAS7 at Week 12 (for US and US reference countries) • Change from baseline in ISS7 at Week 12 (except US and US reference countries) • Change from baseline in HSS7 at Week 12 The following responder secondary endpoints were to be analyzed using the Cochran-Mantel-Haenszel test adjusted by region: • Proportion of participants with UAS7<6 at Week 12 • Proportion of participants with UAS7=0 at Week 12 Participants who received selected prohibited medications and/or rescue medications were to be considered as non-responders for time points after the medication usage. For other participants, all available data including those collected during the off-treatment period were to be used to determine the responder/non-responder status. Missing data were to be considered as non-responders.

## CC(C)(C=C(C#N)C(=O)N1CCC[C@@H](n2nc(-c3ccc(Oc4ccccc4)cc3F)c3c(N)ncnc32)C1)N1CCN(C2COC2)CC1 [rilzabrutinib, (R)-2-[3-[4-amino-3-(2-fluoro-4-phenoxy-phenyl)pyrazolo[3,4-d]pyrimidin-1-yl]piperidine-1-carbonyl]-4-methyl-4-[4-(oxetan-3-yl)piperazin-1-yl]pent-2-enenitrile]
Week 6
  Non-responder n (%), UAS7 = 0: 37 (97.4) n (%)
  Non-responder n (%), UAS7 ≤6: 35 (92.1) n (%)
  OR for rilzabrutinib vs. placebo, UAS7 = 0: 1.000
  OR for rilzabrutinib vs. placebo, UAS7 ≤6: 0.540
  RRD (%) for rilzabrutinib vs. placebo, UAS7 = 0: 0.0 %
  RRD (%) for rilzabrutinib vs. placebo, UAS7 ≤6: −6.3%
  Responder n (%), UAS7 = 0: 1 (2.6) n (%)
  Responder n (%), UAS7 ≤6: 3 (7.9) n (%)
Week 7
  Imputed non-responder n (%), UAS7 = 0: 6 (15.8) n (%)
  Imputed non-responder n (%), UAS7 ≤6: 6 (15.8) n (%)
  Non-responder n (%), UAS7 = 0: 37 (97.4) n (%)
  Non-responder n (%), UAS7 ≤6: 37 (97.4) n (%)
  OR for rilzabrutinib vs. placebo, UAS7 = 0: 1.167
  OR for rilzabrutinib vs. placebo, UAS7 ≤6: 0.278
  RRD (%) for rilzabrutinib vs. placebo, UAS7 = 0: 0.4 %
  RRD (%) for rilzabrutinib vs. placebo, UAS7 ≤6: −7.3%
  Responder n (%), UAS7 = 0: 1 (2.6) n (%)
  Responder n (%), UAS7 ≤6: 1 (2.6) n (%)
Week 8
  Imputed non-responder n (%), UAS7 = 0: 7 (18.4) n (%)
  Imputed non-responder n (%), UAS7 ≤6: 7 (18.4) n (%)
  Non-responder n (%), UAS7 = 0: 37 (97.4) n (%)
  Non-responder n (%), UAS7 ≤6: 35 (92.1) n (%)
  OR for rilzabrutinib vs. placebo, UAS7 = 0: 0.527
  OR for rilzabrutinib vs. placebo, UAS7 ≤6: 0.502
  RRD (%) for rilzabrutinib vs. placebo, UAS7 = 0: −2.2 %
  RRD (%) for rilzabrutinib vs. placebo, UAS7 ≤6: −7.0%
  Responder n (%), UAS7 = 0: 1 (2.6) n (%)
  Responder n (%), UAS7 ≤6: 3 (7.9) n (%)
Week 9
  Imputed non-responder n (%), UAS7 = 0: 6 (15.8) n (%)
  Imputed non-responder n (%), UAS7 ≤6: 6 (15.8) n (%)
  Non-responder n (%), UAS7 = 0: 37 (97.4) n (%)
  Non-responder n (%), UAS7 ≤6: 35 (92.1) n (%)
  OR for rilzabrutinib vs. placebo, UAS7 = 0: 0.330
  OR for rilzabrutinib vs. placebo, UAS7 ≤6: 0.773
  RRD (%) for rilzabrutinib vs. placebo, UAS7 = 0: −4.9 %
  RRD (%) for rilzabrutinib vs. placebo, UAS7 ≤6: −2.2 %
  Responder n (%), UAS7 = 0: 1 (2.6) n (%)
  Responder n (%), UAS7 ≤6: 3 (7.9) n (%)
Week 10
  Imputed non-responder n (%), UAS7 = 0: 6 (15.8) n (%)
  Imputed non-responder n (%), UAS7 ≤6: 6 (15.8) n (%)
  Non-responder n (%), UAS7 = 0: 37 (97.4) n (%)
  Non-responder n (%), UAS7 ≤6: 36 (94.7) n (%)
  OR for rilzabrutinib vs. placebo, UAS7 = 0: 0.235
  OR for rilzabrutinib vs. placebo, UAS7 ≤6: 0.279
  RRD (%) for rilzabrutinib vs. placebo, UAS7 = 0: −7.9 %
  RRD (%) for rilzabrutinib vs. placebo, UAS7 ≤6: −11.9%
  Responder n (%), UAS7 = 0: 1 (2.6) n (%)
  Responder n (%), UAS7 ≤6: 2 (5.3) n (%)
Week 11
  Imputed non-responder n (%), UAS7 = 0: 7 (18.4) n (%)
  Imputed non-responder n (%), UAS7 ≤6: 7 (18.4) n (%)
  Non-responder n (%), UAS7 = 0: 36 (94.7) n (%)
  Non-responder n (%), UAS7 ≤6: 35 (92.1) n (%)
  OR for rilzabrutinib vs. placebo, UAS7 = 0: 1.065
  OR for rilzabrutinib vs. placebo, UAS7 ≤6: 0.418
  RRD (%) for rilzabrutinib vs. placebo, UAS7 = 0: 0.3 %
  RRD (%) for rilzabrutinib vs. placebo, UAS7 ≤6: −9.4%
  Responder n (%), UAS7 = 0: 2 (5.3) n (%)
  Responder n (%), UAS7 ≤6: 3 (7.9) n (%)
Week 12
  Imputed non-responder n (%), UAS7 = 0: 10 (26.3) n (%)
  Imputed non-responder n (%), UAS7 ≤6: 10 (26.3) n (%)
  Non-responder n (%), UAS7 = 0: 37 (97.4) n (%)
  Non-responder n (%), UAS7 ≤6: 36 (94.7) n (%)
  OR for rilzabrutinib vs. placebo, UAS7 = 0: 0.194
  OR for rilzabrutinib vs. placebo, UAS7 ≤6: 0.378
  RRD (%) for rilzabrutinib vs. placebo, UAS7 = 0: −10.0 %
  RRD (%) for rilzabrutinib vs. placebo, UAS7 ≤6: −7.6%
  Responder n (%), UAS7 = 0: 1 (2.6) n (%)

From patent US20260256792A1, “TREATMENT OF CHRONIC SPONTANEOUS URTICARIA BY ADMINISTERING (R)-2-[3-[4-AMINO-3-(2-FLUORO-4-PHENOXY-PHENYL)PYRAZOLO[3,4-D]PYRIMIDIN-1-YL]PIPERIDINE-1-CARBONYL]-4-METHYL-4-[4-(OXETAN-3-YL)PIPERAZIN-1-YL]PENT-2-ENENITRILE” (priority 2023, published 2026)
